Measurements taken from patent US20060058364A1, “Treatment of dependence and dependence related withdrawal symptoms” (priority 2002, published 2006).
Like-named read-outs stand apart in the source and are kept apart here.

Key:
[1] = system: 5-HT1A receptors or 5-HT1D receptors; details: cited from earlier work
[2] = system: atipamezole cue (atipamezole-associated lever selection); format: in vivo; details: for dose at which full generalization was achieved: training dose 1 mg/kg s.c.
Experimental: A total of 50 Sprague-Dawley male rats (B&K, Sweden) were used in the drug discrimination experiment at Orion Pharma, Turku, Finland. The rats were housed in solid bottom polypropylene cages with stainless steel mesh lids 5 rats per cage on a 12/12 hour light/dark cycle (lights on at 06.00 a.m.) under standard conditions in 21±1° C. temperature. […] During training period the rats were allowed food 6-15 g/day immediately after the session and during testing period they were allowed 12-15 g/day after the session. The rats adopted well to this feeding schedule and grew slowly but steadily. Rats were drug and experimentally naive at the start of the experiments. All experimentation was approved by the local laboratory animal care and experimentation committee. The animals were housed according to the recommendations of Declaration of Helsinki and DHEW pub. No (NIH) 85-23 entitled “Guide for the care and use of laboratory animals”.
The drugs used were atipamezole HCl and MPV-1730 HCl (Orion Pharma, Finland), d-amphetamine sulphate (Sigma, USA), cocaine HCl (Tamro, Finland)) and desipramine HCl (Sigma, USA). All doses refer to respective salt forms. Drugs were diluted in sterile purified water (Aquasteril, Orion Pharma, Finland) and were prepared daily. Injections were given 30 min before the sessions. Saline (Natrosteril, Orion Pharma, Finland) was used in control administrations. Drugs were administered subcutaneously (s.c.) or intraperiotoneally (i.p.) in a volume of 1 ml/kg or perorally (p.o.) gy a gavage 10 ml/kg.
In the atipamezole discrimination experiment five identical operant chambers enclosed in larger sound and light attenuating, fan ventilated enclosures were used. Each chamber was equipped with two identical levers on one wall. Between these levers was a food cup, where 45 mg reward pellets (F0021, Bio-Serv, Frenchtown, USA) could be presented. The whole operant system was purchased from Rhema-Labortechnik, Hofheim, Germany.
The training to press levers for reward pellets was started with 50 rats with a continuous reinforcement (CRF) schedule, when both levers were active and later by changing daily the active lever. […] The duration of the session to this point was 30 min and thereafter the training sessions were reduced to 15 min. The discrimination training dose of atipamezole (1 mg/kg s.c.) was selected according to the effect of atipamezole (0, 0.1, 0.3, 1 and 3 mg/kg s.c.) on FR-10 responding when tested in the rats (session 30, data not shown). Thereafter, discrimination training was started with 46 rats. The discrimination training was done in following two week sequence: S-D-D-S-S and D-S-S-D-D (D=drug appropriate lever, S=saline lever) (Colpaert F., Niemegeers, C., Janssen, P. Theoretical and methodological considerations on drug discrimination learning. Psychopharmacologia (Berl.) 46: 169-177, 1976.). For half of the rats the right lever was a drug-appropriate lever and for the another half the left lever. During training only the drug- or saline-appropriate lever was active, but both levers were recorded. If a rat chose the correct lever during ten consecutive sessions and the total number of responses before the first reinforcer was 15 or less, the rat was accepted to the drug tests.
When the rats had reached the criterion, they were tested twice a week (usually on Wednesdays and Fridays) with different drugs. The normal sequence of saline or atipamezole was continued on other days. The lever selection had to be correct on the preceding day of the drug test and on the next day after drug test in order to be approved in the results. In the testing day, the rat decided which lever was activated by pressing ten lever presses on either of the levers. The selected lever was activated during the rest of the session. The previous saline day was used as a predrug control value. […]

[3] = system: alpha1-adrenergic, dopaminergic, GABAergic, serotonergic (such as 5-HT1A) etc. receptors; details: cited from earlier work
idazoxan cue = details: rats trained to discriminate idazoxan; cited from earlier work
[4] = system: psychostimulants such as amphetamine and cocaine (cue); details: rat, in vivo; cited from earlier work
amphetamine cue = details: rats trained to discriminate d-amphetamine; cited from earlier work
[5] = system: dopaminergic, 5-hydroxyhyptaminergic receptors and benzodiazepine receptors; details: cited from earlier work

COc1ccccc1N1CCN(CCN2C(=O)c3ccccc3C(C)(C)C2=O)CC1 [ARC 239]
affinity on 5-HT1A receptors or 5-HT1D receptors [1]: have affinity

CCC1(c2c[nH]cn2)Cc2ccccc2C1.Cl [Atipamezole, 4-(2-ethyl-2,3-dihydro-1H-inden-2-yl)-1H-imidazole hydrochloride]
atipamezole-associated lever selection ([2]; 0.003-10 mg/kg, FIG. 1): dose-responsively increased
dose at which full generalization was achieved ([2]; atipamezole p.o., 60 min before session, FIG. 1): 1 mg/kg
dose at which full generalization was achieved ([2]; atipamezole s.c., 30 min before session, FIG. 1): 0.3 mg/kg
affinity for any other neurotransmitter receptors [3]: negligible affinity

CC1c2ccccc2CN1CC1=NCCN1 (stereo not drawn) [BRL 44408]
affinity on 5-HT1A receptors or 5-HT1D receptors [1]: have affinity

CCC1(c2c[nH]cn2)Cc2ccc(F)cc2C1 (stereo not drawn) [MPV-1730, 4-(2-ethyl-5-fluoro-2,3-dihydro-1H-inden-2-yl)-1H-imidazole]
generalization to atipamezole cue ([2]; 0.01-1 mg/kg s.c., 30 min before session, FIG. 3): generalized to atipamezole cue

COC1(C2=NCCN2)COc2ccccc2O1 (stereo not drawn) [RX821002]
affinity on 5-HT1A receptors or 5-HT1D receptors [1]: have affinity

C[C@H](N)Cc1ccccc1 [d-amphetamine]
generalization to atipamezole cue ([2]; s.c., tested 0.03-1 mg/kg, at doses 0.5 and 1 mg/kg, 30 min before session, FIG. 2): clearly generalized
generalization to idazoxan (idazoxan cue): did not generalize

COc1ccc2c(c1)CCN1C[C@H]3CCCN(S(C)(=O)=O)[C@H]3C[C@@H]21 [delequamine]
affinity on 5-HT1A receptors or 5-HT1D receptors [1]: have affinity

CNCCCN1c2ccccc2CCc2ccccc21 [desipramine]
generalization to atipamezole ([2]; i.p., 30 min before session, FIG. 4): not generalized
tolerability of higher doses ([2]; rat, in vivo): discontinued due to a prolonged lack of appetite
generalisation to psychostimulants [4]: only weakly

c1ccc2c(c1)OCC(C1=NCCN1)O2 (stereo not drawn) [idazoxan]
affinity on 5-HT1A receptors or 5-HT1D receptors [1]: have affinity
generalization to amphetamine (amphetamine cue): did not generalize

COC(=O)[C@@H]1[C@H]2C[C@H]3c4[nH]c5ccccc5c4CCN3C[C@@H]2CC[C@@H]1O [yohimbine]
affinity to other than noradrenergic receptors [5]: has affinity
generalization to amphetamine (amphetamine cue): did not generalize
